Test results taken from US20240376099A1, “COMPOUNDS AND COMPOSITIONS AS INHIBITORS OF ENDOSOMAL TOLL-LIKE RECEPTORS” (Novartis AG, priority 2016, published 2024).

target: T1, TLR8 (Homo sapiens, UniProt Q9NR97); assay: huPBMC TLR8 Antagonist IL-6 TR-FRET Assay; type: cell-based; parameters: Fresh blood was collected from normal human donors; endogenous in cells; host or cells: human PBMCs from fresh donor blood; conditions: human PBMCs stimulated with ssRNA40 1 μg/ml (DOTAP), 14-16 hrs; IL-6 TR-FRET read-out
T1 sequence (Q9NR97 27-1041): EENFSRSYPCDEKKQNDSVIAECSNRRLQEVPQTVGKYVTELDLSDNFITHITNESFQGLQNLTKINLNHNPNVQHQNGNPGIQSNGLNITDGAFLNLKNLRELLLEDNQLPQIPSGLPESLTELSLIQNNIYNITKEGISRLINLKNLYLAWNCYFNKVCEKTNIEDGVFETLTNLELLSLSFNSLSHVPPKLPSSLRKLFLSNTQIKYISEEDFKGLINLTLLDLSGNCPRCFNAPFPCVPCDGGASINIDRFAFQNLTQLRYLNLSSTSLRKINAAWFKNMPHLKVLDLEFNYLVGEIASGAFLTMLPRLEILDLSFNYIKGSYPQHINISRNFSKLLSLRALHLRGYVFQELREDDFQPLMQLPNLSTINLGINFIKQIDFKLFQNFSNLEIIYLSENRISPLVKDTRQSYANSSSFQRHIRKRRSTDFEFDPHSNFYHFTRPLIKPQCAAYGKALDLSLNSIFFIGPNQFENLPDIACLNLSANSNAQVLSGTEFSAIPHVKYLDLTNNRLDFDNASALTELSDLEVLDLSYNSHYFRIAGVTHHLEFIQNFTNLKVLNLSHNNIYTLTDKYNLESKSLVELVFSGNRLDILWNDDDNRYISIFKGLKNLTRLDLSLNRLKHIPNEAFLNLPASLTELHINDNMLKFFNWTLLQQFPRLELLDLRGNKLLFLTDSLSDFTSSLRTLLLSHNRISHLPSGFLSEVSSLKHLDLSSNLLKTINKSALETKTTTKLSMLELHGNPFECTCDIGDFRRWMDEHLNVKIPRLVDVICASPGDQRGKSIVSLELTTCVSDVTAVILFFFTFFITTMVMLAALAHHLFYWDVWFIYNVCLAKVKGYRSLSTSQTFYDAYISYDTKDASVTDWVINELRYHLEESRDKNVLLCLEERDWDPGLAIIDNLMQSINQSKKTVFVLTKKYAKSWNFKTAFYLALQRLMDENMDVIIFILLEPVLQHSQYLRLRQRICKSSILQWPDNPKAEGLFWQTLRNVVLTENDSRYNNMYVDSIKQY
Protocol: Compounds were generally serially diluted (1/3) in DMSO and plated on sterile 384 well tissue culture plates and stored until ready for use. Each ten-point dilution was typically plated in triplicate in parallel rows.
Fresh blood was collected from normal human donors underwritten informed consent in heparinized syringes on the morning of the assay. The blood was diluted in RPMI-1640 medium and the white blood cells were separated from red blood cells by centrifugation (800 g 15′ 0 acceleration, 0 brake) on a Ficoll cushion. Peripheral blood mononuclear cells (PBMCs) were separated from platelets by a series of low-speed centrifugations (1000RPM 10′) in PBS+5% HI—FBS and 1 mM EDTA. Purified PBMCs were re-suspended in assay medium (RPMI-1640 w Glutamax (Invitrogen) supplemented with 5% HI—FBS, 10 mM HEPES, 50 uM β-mercaptoethanol, and 100 mG/L penicillin/streptomycin cocktail). Viable PBMCs were counted on a hemacytometer and kept on ice until ready for plating.
A 4× concentration (4 ug/ml or 40 ug/ml for TLR8 or TLR7 assays, respectively) of the TLR7/8 agonist ssRNA40 (IDT) was complexed with 10% DOTAP (Roche) in assay medium for 30 min prior to addition to the PBMC suspension (5 million cells/ml). After addition, the final concentration of ssRNA40 in the TLR7/8 stimulated PBMC suspension was 1 μg/ml for TLR8 assay, and 10 μg/mL for the TLR7 assay. The final DOTAP concentration was 2.5%. Diluted PBMCs (5 million cells/ml) were treated with 4×TLR9 agonist ODN2216 (Invivogen). Final concentration of ODN2216 in TLR9 stimulated PBMC suspension was 0.3 μM.
Agonist stimulated PBMCs were plated on the compound treated 384 well plates at 150,000 cells/well. Un-stimulated PBMCs were plated as controls on each plate. Plating volume was 40 μL per well. DMSO concentration in each well was 0.25%.
A separate plate, without compounds, with titrations of ssRNA40 and ODN2216 was included in every assay to measure agonist response of each donor's PBMC prep. Assay plates were placed in a tissue culture incubator (37° C., 5% CO2) for 14-16 hrs. After this incubation, the plates were centrifuged and stored at −20° C. until they were assayed.
IL-6 TR-FRET Assay for TLR8 activity: • 1) Cisbio Human IL-6 kit, 20,000 tests (62TNFPEC), and GNF High-Base TC 384 well plates (cat #789163G) were used; • 2) the Anti-TIL-6 Cryptate conjugate and the Anti-IL-6 XL665 conjugate were diluted 1:20 in Reconstitution Buffer; • 3) a 1:1 mixture of 3 μl/well Anti-IL-6 Cryptate conjugate and 3 μl/well Anti-IL-6 XL665 conjugate was prepared; • 4) 6 μl/well HTRF dilution mastermix was added to 6 μl of transferred supernatant samples in proxiplates; • 5) The plates were incubated for 3 hrs at rt in the dark; and • 6) the levels of IL-6 production was measured using an Envision plate reader (665 nm (emmission)/590 nm (excitation)) with HTRF settings and ratiometric read-out: (XL665 emission/Eu Cryptate emission)×10,000. IFNα2b AlphaLISA Assay for TLR7 or TLR9 activity After thawing the assay plates, 6 μL of supernatant samples were transferred to a low-volume AlphaPlate 384SW (Perkin-Elmer). The concentration of IFNα in supernatants was measured using the IFNα2b AlphaLISA Assay (Perkin-Elmer: AL297F). 3 μL of IFNα acceptor beads/biotinylated antibody solution was added first, using laboratory automation. After an hour incubation, […] of streptavidin […] bead solution was added. The plates containing this mixture were incubated in the dark for an hour and read on an appropriate plate reader at reading parameters set by the manufacturer. (Envision, EnSpire: Perkin-Elmer).

Q: For Cc1cc(N2CCc3c(c(C)nn3CC34CCC(N5CCCC5)(CC3)CO4)C2)c2cnn(C)c2n1 [compound 82, 5-(1,6-dimethyl-1H-pyrazolo[3,4-b]pyridin-4-yl)-3-methyl-1-((4-(pyrrolidin-1-yl)-2-oxabicyclo[2.2.2]octan-1-yl)methyl)-4,5,6,7-tetrahydro-1H-pyrazolo[4,3-c]pyridine], which IC50 is on record?
A: 486 nM

Q: How did the IC50 turn out when Cc1cc(N2CCc3c(c(C)nn3CC34CCC(N(C)C)(CC3)CO4)C2)c2cnn(C)c2n1 [compound 98, 1-((5-(1,6-dimethyl-1H-pyrazolo[3,4-b]pyridin-4-yl)-3-methyl-4,5,6,7-tetrahydro-1H-pyrazolo[4,3-c]pyridin-1-yl)methyl)-N,N-dimethyl-2-oxabicyclo[2.2.2]octan-4-amine] was run?
A: 718 nM

Q: With Cc1cc(N2CCc3c(c(C)nn3CC34CCC(N5CCS(=O)(=O)CC5)(CC3)CC4)C2)c2cnn(C)c2n1 [compound 66, 4-(4-((5-(1,6-dimethyl-1H-pyrazolo[3,4-b]pyridin-4-yl)-3-methyl-4,5,6,7-tetrahydro-1H-pyrazolo[4,3-c]pyridin-1-yl)methyl)bicyclo[2.2.2]octan-1-yl)thiomorpholine 1,1-dioxide] as the compound, how does the IC50 read?
A: 1130 nM

Q: For Cc1cc(N2CCc3c(c(C)nn3CC34CCC(N)(CC3)CO4)C2)c2cnn(C)c2n1 [compound 81, 1-((5-(1,6-dimethyl-1H-pyrazolo[3,4-b]pyridin-4-yl)-3-methyl-4,5,6,7-tetrahydro-1H-pyrazolo[4,3-c]pyridin-1-yl)methyl)-2-oxabicyclo[2.2.2]octan-4-amine], which IC50 is on record?
A: 395 nM

Q: Which IC50 does the source give for Cc1cc(N2CCc3c(c(C)nn3CC34CCC(N5CC(O)C5)(CC3)CC4)C2)c2cnn(C)c2n1 [compound 68, 1-(4-((5-(1,6-dimethyl-1H-pyrazolo[3,4-b]pyridin-4-yl)-3-methyl-4,5,6,7-tetrahydro-1H-pyrazolo[4,3-c]pyridin-1-yl)methyl)bicyclo[2.2.]octan-1-yl)azetidin-3-ol] here?
A: 155 nM

Q: How did the IC50 turn out when COc1ccc(-c2cc(N3CCc4c(c(C)nn4CC45CCC(N)(CC4)CC5)C3)ccn2)cc1 [compound 89, 4-((5-(2-(4-methoxyphenyl)pyridin-4-yl)-3-methyl-4,5,6,7-tetrahydro-1H-pyrazolo[4,3-c]pyridin-1-yl)methyl)bicyclo[2.2.2]octan-1-amine] was run?
A: 622 nM

Q: How did the IC50 turn out when Cc1nc(N2CCc3c(c(C)nn3CC34CCC(N)(CC3)CC4)C2)c2cc[nH]c2n1 [Compound No. 4, 4-((3-methyl-5-(2-methyl-7H-pyrrolo[2,3-d]pyrimidin-4-yl)-4,5,6,7-tetrahydro-1H-pyrazolo[4,3-c]pyridin-1-yl)methyl)bicyclo[2.2.2]octan-1-amine] was run?
A: 511 nM

Q: Which IC50 does the source give for Cc1ccc(-c2cc(N3CCc4c(c(C)nn4CC45CCC(N)(CC4)CC5)C3)ccn2)cc1 [compound 90, 4-((3-methyl-5-(2-(p-tolyl)pyridin-4-yl)-4,5,6,7-tetrahydro-1H-pyrazolo[4,3-c]pyridin-1-yl)methyl)bicyclo[2.2.2]octan-1-amine] here?
A: 1010 nM

Q: With Cc1nc(N2CCc3c(c(C)nn3CC34CCC(N)(CC3)CC4)C2)c2cnn(C)c2n1 [compound 149, 4-((5-(1,6-dimethyl-1H-pyrazolo[3,4-d]pyrimidin-4-yl)-3-methyl-4,5,6,7-tetrahydro-1H-pyrazolo[4,3-c]pyridin-1-yl)methyl)bicyclo[2.2.2]octan-1-amine] as the compound, how does the IC50 read?
A: 695 nM

Q: How did the IC50 turn out when Cc1cc(N2CCc3c(c(C)nn3CC34CCC(NC(=O)C5COCCN5C)(CC3)CC4)C2)c2cnn(C)c2n1 (centres unmarked) [compound 122, N-(4-((5-(1,6-dimethyl-1H-pyrazolo[3,4-b]pyridin-4-yl)-3-methyl-4,5,6,7-tetrahydro-1H-pyrazolo[4,3-c]pyridin-1-yl)methyl)bicyclo[2.2.2]octan-1-yl)-4-methylmorpholine-3-carboxamide] was run?
A: 922 nM

Q: With Cc1cc(N2CCc3c(c(C)nn3CC34CCC(NCC(=O)N(C)C)(CC3)CC4)C2)c2cnn(C)c2n1 [Compound No. 76, 2-((4-((5-(1,6-dimethyl-1H-pyrazolo[3,4-b]pyridin-4-yl)-3-methyl-4,5,6,7-tetrahydro-1H-pyrazolo[4,3-c]pyridin-1-yl)methyl)bicyclo[2.2.2]octan-1-yl)amino)-N,N-dimethylacetamide] as the compound, how does the IC50 read?
A: 201 nM
